Measured values published in ChEMBL document CHEMBL1147982, “Structure, inhibitor, and regulatory mechanism of Lyp, a lymphoid-specific tyrosine phosphatase implicated in autoimmune diseases” (Proc Natl Acad Sci U S A, 2007).
Active and inactive are the calls of the source. The calls are words filed in the database; no cut-off is given here.

What was measured:
[1] = molecular target: Tyrosine-protein phosphatase non-receptor type 13 (Homo sapiens, UniProt Q12923); experiment: Inhibition of FAP1
[2] = molecular target: T1, Tyrosine-protein phosphatase non-receptor type 11 (Homo sapiens, UniProt Q06124); experiment: Inhibition of SHP2
T1 sequence (Q06124 whole entry): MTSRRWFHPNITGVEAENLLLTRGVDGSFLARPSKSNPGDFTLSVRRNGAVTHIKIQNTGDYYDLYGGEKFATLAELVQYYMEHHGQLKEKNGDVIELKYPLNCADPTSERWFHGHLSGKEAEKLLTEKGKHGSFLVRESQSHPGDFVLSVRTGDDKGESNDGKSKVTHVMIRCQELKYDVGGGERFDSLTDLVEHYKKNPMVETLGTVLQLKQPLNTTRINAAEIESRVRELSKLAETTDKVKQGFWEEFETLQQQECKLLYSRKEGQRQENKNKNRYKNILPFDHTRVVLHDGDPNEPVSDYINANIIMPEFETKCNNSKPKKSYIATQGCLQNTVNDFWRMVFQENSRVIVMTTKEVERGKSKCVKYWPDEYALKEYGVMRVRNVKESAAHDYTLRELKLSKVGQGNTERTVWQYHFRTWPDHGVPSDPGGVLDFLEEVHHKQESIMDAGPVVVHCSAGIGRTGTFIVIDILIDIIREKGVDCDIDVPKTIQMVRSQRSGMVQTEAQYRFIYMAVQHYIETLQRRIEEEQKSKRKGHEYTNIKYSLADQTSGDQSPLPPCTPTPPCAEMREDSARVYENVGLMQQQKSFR

[3] = molecular target: Receptor-type tyrosine-protein phosphatase alpha (Homo sapiens) (UniProt P18433); experiment: Inhibition of PTPalpha at 100 uM
[4] = molecular target: T2, Tyrosine-protein phosphatase non-receptor type 1 (Homo sapiens, UniProt P18031); experiment: Inhibition of PTP1B
T2 sequence (P18031 whole entry): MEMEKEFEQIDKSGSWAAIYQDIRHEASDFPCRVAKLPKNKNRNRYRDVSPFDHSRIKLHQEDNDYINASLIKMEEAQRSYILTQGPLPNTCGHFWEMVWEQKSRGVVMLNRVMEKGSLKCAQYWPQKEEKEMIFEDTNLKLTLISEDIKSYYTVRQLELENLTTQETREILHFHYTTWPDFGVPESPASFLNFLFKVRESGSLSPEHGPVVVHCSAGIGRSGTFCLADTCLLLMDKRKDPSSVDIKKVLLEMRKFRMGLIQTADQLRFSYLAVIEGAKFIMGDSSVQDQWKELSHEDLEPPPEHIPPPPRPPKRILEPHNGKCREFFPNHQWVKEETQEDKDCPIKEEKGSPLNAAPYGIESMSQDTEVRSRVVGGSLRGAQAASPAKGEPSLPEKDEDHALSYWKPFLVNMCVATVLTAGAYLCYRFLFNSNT

[5] = Inhibition of lymphoid-specific tyrosine phosphatase pLyp35 mutant
[6] = molecular target: Receptor-type tyrosine-protein phosphatase F (Homo sapiens) (UniProt P10586); experiment: Inhibition of LAR at 100 uM
[7] = molecular target: T3, Tyrosine-protein phosphatase non-receptor type 7 (Homo sapiens, UniProt P35236); experiment: Inhibition of HePTP
T3 sequence (P35236 whole entry): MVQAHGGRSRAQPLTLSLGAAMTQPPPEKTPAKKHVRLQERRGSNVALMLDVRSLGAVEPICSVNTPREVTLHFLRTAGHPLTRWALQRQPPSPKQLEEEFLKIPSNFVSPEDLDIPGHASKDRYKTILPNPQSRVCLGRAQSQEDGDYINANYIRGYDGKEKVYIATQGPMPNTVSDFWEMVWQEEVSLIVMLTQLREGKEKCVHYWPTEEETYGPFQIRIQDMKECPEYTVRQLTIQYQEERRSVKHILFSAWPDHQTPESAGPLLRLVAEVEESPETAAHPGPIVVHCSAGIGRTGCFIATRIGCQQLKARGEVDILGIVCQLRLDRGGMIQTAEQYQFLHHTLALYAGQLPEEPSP

[8] = molecular target: T4, Tyrosine-protein phosphatase non-receptor type 9 (Homo sapiens, UniProt P43378); experiment: Inhibition of PTP-Meg2
T4 sequence (P43378 whole entry): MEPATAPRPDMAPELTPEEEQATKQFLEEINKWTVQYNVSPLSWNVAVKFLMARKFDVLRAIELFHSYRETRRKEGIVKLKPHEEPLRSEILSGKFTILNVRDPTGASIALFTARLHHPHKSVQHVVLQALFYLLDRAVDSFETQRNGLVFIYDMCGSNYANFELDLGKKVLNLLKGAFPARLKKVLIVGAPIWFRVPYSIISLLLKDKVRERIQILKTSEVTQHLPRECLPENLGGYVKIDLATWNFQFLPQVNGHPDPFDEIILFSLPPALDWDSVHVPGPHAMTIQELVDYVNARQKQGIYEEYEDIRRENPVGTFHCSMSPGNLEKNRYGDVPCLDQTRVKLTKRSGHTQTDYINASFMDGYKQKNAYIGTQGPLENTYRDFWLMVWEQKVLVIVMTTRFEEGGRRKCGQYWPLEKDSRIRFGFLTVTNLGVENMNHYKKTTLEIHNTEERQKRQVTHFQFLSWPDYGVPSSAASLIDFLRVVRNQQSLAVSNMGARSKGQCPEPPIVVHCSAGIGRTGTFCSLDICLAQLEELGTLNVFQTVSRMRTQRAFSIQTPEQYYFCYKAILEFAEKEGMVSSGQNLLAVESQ

[9] = molecular target: T5, Receptor-type tyrosine-protein phosphatase C (Homo sapiens, UniProt P08575); experiment: Inhibition of CD45
T5 sequence (P08575 whole entry): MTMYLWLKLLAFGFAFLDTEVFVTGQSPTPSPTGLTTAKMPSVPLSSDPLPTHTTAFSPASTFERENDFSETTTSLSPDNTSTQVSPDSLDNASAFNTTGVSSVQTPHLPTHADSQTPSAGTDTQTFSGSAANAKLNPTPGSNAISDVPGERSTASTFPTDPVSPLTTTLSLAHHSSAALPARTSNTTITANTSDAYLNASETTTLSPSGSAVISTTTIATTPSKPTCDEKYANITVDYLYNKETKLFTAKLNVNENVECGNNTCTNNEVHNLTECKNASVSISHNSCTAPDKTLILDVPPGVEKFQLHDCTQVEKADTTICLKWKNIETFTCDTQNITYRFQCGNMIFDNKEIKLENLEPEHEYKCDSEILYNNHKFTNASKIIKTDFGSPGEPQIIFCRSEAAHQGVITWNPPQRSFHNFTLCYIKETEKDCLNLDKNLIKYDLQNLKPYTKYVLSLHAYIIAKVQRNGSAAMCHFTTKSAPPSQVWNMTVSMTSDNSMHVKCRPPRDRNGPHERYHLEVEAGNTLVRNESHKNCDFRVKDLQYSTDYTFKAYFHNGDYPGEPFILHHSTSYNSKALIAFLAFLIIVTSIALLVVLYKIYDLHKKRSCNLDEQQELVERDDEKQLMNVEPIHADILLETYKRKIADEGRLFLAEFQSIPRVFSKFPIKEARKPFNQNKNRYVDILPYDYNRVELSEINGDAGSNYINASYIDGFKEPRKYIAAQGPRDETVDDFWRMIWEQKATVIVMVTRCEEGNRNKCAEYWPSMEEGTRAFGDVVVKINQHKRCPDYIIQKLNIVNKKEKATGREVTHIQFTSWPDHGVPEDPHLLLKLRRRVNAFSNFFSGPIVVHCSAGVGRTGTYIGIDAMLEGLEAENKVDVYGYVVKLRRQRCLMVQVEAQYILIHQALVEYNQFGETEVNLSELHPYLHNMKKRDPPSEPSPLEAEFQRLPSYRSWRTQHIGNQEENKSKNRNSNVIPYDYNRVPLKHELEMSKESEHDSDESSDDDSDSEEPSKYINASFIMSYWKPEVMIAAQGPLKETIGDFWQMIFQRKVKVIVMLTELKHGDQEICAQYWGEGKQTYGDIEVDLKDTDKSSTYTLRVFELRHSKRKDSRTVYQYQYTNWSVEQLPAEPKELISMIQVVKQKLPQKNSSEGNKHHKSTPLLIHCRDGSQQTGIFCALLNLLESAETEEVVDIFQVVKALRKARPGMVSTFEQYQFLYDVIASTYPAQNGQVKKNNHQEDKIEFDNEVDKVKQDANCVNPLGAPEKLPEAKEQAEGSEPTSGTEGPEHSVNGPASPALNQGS

[10] = molecular target: Dual specificity protein phosphatase 3 (Homo sapiens, UniProt P51452); experiment: Inhibition of VHR

Receptor-type tyrosine-protein phosphatase F (Homo sapiens), sequence (P10586 whole entry): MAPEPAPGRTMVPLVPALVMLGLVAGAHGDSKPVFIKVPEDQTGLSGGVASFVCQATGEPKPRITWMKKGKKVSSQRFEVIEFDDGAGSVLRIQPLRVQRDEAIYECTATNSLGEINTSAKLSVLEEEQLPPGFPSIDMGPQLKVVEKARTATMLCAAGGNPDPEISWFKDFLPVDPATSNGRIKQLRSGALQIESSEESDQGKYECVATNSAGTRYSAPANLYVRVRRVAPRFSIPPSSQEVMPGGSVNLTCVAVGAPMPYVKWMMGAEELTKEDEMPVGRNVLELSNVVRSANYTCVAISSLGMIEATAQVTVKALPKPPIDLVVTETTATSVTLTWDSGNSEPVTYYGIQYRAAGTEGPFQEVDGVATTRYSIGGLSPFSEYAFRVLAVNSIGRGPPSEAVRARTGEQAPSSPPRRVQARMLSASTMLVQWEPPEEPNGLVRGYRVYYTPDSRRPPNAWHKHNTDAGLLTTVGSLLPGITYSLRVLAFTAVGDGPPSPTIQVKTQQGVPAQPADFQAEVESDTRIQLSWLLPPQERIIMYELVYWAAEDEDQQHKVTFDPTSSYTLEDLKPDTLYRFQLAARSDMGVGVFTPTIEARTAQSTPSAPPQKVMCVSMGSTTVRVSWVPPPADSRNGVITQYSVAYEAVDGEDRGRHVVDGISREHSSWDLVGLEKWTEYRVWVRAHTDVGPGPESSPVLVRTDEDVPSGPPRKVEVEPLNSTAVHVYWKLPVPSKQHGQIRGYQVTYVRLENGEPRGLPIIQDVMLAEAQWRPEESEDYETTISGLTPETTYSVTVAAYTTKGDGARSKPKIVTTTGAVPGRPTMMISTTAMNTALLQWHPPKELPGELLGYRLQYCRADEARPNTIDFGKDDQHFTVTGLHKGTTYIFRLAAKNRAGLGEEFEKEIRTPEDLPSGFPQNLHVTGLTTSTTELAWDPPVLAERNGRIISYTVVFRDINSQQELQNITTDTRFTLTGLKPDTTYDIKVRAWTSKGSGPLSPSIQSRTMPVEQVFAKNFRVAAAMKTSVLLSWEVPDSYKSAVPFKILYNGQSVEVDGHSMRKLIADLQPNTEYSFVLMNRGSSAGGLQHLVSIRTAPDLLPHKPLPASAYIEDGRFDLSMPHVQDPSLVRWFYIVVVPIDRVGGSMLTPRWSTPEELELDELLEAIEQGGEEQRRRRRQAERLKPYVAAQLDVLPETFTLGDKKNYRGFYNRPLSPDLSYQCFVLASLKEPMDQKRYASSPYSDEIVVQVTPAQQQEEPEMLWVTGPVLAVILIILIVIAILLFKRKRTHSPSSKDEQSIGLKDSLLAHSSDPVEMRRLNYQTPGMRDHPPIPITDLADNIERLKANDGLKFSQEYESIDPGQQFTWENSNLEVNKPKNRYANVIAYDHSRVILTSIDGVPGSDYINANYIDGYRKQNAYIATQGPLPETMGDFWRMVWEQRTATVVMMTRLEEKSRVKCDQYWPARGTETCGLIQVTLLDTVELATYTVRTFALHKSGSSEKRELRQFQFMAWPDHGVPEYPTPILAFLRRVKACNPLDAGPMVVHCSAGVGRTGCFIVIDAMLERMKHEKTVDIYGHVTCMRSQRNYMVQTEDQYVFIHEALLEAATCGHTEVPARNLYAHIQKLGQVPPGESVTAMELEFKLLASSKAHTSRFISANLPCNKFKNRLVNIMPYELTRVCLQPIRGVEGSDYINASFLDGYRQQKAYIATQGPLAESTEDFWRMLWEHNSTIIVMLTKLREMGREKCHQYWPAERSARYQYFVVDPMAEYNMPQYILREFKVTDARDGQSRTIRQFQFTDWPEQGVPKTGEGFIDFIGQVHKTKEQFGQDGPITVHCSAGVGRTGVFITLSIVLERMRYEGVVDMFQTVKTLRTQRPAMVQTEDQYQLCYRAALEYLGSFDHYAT
Receptor-type tyrosine-protein phosphatase alpha (Homo sapiens), sequence (P18433 20-802 limits assumed): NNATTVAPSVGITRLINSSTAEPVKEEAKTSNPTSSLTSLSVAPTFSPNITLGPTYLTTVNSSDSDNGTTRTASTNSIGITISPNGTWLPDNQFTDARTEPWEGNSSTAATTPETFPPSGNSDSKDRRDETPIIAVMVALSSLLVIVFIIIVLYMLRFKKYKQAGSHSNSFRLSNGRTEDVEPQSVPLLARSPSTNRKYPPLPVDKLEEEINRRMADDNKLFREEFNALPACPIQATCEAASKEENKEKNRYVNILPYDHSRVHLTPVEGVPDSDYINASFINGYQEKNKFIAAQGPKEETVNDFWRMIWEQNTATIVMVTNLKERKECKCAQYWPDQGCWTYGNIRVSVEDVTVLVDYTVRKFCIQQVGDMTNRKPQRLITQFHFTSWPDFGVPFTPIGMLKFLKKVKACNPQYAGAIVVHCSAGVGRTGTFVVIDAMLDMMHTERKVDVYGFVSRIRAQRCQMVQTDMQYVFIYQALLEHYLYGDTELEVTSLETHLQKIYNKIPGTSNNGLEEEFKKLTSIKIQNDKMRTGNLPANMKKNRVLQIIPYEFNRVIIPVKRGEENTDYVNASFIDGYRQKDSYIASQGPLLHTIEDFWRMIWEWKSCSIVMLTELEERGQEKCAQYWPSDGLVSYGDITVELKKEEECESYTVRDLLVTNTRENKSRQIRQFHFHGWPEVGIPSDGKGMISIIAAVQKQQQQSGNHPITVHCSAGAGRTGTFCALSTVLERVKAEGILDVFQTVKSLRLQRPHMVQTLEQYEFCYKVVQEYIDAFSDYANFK
Tyrosine-protein phosphatase non-receptor type 13, sequence (Q12923 whole entry): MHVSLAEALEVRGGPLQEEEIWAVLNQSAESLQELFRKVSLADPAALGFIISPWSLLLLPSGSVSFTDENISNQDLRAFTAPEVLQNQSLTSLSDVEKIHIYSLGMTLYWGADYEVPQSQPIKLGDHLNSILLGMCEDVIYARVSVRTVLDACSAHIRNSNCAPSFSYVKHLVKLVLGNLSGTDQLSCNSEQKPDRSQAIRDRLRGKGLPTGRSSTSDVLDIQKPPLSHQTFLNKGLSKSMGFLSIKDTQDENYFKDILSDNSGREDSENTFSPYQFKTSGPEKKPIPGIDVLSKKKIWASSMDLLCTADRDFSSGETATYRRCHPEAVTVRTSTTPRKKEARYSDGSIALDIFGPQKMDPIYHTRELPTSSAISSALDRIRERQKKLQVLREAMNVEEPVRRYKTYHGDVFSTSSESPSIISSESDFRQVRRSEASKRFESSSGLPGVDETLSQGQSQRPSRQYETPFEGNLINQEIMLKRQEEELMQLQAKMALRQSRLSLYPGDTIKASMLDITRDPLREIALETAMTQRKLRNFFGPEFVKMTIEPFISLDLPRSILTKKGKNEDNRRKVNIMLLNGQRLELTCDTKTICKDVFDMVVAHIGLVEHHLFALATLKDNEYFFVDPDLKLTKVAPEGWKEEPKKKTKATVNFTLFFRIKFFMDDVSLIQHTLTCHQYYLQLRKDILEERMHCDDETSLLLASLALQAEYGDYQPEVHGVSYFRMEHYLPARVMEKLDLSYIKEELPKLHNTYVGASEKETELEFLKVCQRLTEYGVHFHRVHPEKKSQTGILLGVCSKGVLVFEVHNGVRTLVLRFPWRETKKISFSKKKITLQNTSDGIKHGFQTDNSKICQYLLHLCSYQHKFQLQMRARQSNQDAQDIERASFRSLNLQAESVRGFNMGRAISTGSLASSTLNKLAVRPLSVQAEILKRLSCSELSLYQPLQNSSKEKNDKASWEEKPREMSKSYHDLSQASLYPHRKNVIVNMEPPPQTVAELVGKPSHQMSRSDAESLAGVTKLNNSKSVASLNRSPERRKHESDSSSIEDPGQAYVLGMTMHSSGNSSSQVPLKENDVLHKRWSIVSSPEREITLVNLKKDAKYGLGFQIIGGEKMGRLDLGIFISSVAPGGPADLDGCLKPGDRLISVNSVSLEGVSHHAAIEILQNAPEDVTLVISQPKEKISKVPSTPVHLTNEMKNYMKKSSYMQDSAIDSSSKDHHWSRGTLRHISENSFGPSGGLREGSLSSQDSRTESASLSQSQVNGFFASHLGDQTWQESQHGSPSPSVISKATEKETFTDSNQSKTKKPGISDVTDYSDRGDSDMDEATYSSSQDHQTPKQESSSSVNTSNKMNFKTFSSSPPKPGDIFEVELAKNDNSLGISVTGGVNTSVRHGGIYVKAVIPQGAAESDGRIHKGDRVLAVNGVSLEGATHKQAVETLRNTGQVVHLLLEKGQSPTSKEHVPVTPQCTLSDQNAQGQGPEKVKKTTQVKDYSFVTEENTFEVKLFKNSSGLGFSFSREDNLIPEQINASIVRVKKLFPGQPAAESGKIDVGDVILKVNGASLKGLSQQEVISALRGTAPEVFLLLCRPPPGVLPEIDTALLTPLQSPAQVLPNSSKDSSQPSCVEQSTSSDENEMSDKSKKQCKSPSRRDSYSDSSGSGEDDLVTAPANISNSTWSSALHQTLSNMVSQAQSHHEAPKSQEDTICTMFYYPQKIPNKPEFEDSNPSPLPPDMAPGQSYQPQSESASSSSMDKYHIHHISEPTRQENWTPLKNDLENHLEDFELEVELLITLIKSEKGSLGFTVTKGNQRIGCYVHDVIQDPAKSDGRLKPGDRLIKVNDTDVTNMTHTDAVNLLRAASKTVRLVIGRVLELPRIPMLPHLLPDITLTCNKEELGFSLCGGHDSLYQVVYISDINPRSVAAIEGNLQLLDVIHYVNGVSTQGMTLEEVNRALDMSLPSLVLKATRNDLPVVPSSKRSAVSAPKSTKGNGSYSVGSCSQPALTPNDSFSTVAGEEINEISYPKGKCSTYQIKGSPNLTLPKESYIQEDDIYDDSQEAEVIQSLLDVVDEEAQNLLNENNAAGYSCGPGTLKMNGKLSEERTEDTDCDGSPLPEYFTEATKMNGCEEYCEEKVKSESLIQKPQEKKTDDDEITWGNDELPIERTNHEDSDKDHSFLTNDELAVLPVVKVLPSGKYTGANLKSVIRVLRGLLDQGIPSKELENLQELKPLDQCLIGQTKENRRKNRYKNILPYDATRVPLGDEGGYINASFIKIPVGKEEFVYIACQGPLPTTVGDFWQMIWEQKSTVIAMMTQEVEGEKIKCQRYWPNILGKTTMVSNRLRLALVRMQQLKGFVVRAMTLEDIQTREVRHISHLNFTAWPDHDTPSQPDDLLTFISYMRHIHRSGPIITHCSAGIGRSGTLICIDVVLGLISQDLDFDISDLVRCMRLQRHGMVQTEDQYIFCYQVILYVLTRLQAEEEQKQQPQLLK

For `O=C(CCCn1cc(-c2c(-c3ccccc3)oc3cc(O)c(C(=O)O)cc23)nn1)Nc1cccc2ccccc12`, the IC50 [1] was 36.8 µM, the IC50 [2] was 36 µM and the Activity [3] was “inactive”. For the same compound, the IC50 [4] was 11.8 µM, the IC50 [5] was 48 µM and the Activity [6] was “inactive”. The IC50 [7] was 32.1 µM, the IC50 [8] was 31.8 µM and the IC50 [9] was 186 µM. For the same compound, the IC50 [10] was 103 µM.
